# In PMC5925572, “Protoplast-Esculin Assay as a New Method to Assay Plant Sucrose Transporters: Characterization of AtSUC6 and AtSUC7 Sucrose Uptake Activity in Arabidopsis Col-0 Ecotype” (Frontiers in Plant Science, 2018):
# T1: AtSUC6Col-0 (Arabidopsis thaliana, UniProt Q6A329)
# T1 construct: gene SUC6; full-length CDS from silique cDNA; untagged in yeast CSY4000 (strain TRY1039); GFP fusion in protoplasts
# T1 sequence (Q6A329 1-492): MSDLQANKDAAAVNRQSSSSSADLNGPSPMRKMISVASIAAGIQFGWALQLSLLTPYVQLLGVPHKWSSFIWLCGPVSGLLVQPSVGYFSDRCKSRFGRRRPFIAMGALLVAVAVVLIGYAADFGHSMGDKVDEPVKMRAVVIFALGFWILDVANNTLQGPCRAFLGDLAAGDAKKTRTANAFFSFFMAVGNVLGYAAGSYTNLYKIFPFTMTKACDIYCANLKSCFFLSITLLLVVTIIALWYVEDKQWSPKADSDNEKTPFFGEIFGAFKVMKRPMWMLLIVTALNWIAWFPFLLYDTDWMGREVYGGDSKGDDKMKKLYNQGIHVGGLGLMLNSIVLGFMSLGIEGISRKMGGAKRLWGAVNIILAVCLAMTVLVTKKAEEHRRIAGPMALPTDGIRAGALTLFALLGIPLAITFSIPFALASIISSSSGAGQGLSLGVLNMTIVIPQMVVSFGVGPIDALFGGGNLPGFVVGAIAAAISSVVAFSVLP
# T2: AtSUC8 (Arabidopsis thaliana, UniProt Q9ZVK6)
# T2 construct: gene SUC8; full-length CDS, GFP fusion, in Arabidopsis mesophyll protoplasts
# T2 sequence (Q9ZVK6 1-492): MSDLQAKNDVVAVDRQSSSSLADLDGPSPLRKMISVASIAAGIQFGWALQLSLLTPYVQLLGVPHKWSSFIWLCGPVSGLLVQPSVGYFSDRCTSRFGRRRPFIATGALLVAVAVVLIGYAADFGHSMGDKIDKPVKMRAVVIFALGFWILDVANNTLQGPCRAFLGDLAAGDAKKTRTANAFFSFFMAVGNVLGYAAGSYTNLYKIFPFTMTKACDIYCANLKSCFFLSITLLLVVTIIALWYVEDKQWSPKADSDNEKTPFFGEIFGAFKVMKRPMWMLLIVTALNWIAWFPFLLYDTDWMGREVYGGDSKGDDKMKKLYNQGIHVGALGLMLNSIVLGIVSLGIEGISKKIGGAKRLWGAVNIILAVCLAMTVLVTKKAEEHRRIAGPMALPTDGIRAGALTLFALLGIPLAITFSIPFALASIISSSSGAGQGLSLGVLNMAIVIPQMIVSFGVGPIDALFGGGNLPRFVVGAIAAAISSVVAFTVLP
# T3: AtSUC1 (Arabidopsis thaliana, UniProt Q39232)
# T3 construct: gene SUC1; full-length CDS, GFP fusion, in Arabidopsis mesophyll protoplasts
# T3 sequence (Q39232 1-513): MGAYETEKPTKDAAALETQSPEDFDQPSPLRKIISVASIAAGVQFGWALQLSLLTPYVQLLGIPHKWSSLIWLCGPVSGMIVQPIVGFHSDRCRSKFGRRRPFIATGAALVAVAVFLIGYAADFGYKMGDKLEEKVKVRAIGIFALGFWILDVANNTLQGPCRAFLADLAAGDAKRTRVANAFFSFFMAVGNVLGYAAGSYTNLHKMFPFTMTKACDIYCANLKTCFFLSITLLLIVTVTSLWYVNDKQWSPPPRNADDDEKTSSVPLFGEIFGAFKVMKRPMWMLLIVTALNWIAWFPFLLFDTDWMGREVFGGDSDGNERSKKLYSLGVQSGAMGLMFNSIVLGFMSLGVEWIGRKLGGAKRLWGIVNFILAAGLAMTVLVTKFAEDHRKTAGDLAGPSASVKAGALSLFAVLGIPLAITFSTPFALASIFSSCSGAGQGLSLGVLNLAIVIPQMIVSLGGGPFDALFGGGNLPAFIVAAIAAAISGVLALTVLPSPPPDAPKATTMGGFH
# T4: AtSUC9 (Arabidopsis thaliana, UniProt Q9FG00)
# T4 construct: gene SUC9; full-length CDS, GFP-AtSUC9 fusion, in Arabidopsis mesophyll protoplasts
# T4 sequence (Q9FG00 1-491): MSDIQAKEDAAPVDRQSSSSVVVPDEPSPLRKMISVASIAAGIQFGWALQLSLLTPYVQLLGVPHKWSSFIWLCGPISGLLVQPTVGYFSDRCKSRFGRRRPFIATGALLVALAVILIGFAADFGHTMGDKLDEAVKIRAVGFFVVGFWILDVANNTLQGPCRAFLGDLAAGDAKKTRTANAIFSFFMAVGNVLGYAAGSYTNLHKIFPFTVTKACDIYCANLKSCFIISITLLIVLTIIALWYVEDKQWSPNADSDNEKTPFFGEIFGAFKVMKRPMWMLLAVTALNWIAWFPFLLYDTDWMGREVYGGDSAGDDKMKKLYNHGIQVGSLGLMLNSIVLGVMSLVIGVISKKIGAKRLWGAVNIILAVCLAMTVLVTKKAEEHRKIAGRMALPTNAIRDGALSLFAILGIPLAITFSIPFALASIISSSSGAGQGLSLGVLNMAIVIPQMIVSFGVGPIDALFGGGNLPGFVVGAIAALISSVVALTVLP
# T5: AtSUC2 (Arabidopsis thaliana, UniProt Q39231)
# T5 construct: gene SUC2; full-length CDS, C-terminal GFP fusion (AtSUC2-GFP), in Arabidopsis mesophyll protoplasts; Col-0 named for the mutant construct
# T5 sequence (Q39231 1-512): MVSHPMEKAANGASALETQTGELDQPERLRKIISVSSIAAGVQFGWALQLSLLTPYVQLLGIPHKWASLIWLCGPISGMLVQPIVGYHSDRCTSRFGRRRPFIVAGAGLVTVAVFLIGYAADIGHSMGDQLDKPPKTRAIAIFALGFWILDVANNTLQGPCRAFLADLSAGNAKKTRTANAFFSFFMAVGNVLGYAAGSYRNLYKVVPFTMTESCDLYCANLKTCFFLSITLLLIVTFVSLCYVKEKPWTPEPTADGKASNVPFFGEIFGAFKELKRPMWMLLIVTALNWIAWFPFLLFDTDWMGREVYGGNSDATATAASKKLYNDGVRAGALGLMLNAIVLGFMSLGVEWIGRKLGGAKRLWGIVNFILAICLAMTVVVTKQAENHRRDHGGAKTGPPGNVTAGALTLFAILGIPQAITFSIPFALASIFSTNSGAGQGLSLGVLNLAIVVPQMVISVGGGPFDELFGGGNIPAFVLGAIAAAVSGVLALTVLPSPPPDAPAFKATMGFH
# T6: AtSUC3 (Arabidopsis thaliana, UniProt O80605)
# T6 construct: gene SUC3; full-length CDS, GFP-AtSUC3 fusion, in Arabidopsis mesophyll protoplasts
# T6 sequence (O80605 1-594): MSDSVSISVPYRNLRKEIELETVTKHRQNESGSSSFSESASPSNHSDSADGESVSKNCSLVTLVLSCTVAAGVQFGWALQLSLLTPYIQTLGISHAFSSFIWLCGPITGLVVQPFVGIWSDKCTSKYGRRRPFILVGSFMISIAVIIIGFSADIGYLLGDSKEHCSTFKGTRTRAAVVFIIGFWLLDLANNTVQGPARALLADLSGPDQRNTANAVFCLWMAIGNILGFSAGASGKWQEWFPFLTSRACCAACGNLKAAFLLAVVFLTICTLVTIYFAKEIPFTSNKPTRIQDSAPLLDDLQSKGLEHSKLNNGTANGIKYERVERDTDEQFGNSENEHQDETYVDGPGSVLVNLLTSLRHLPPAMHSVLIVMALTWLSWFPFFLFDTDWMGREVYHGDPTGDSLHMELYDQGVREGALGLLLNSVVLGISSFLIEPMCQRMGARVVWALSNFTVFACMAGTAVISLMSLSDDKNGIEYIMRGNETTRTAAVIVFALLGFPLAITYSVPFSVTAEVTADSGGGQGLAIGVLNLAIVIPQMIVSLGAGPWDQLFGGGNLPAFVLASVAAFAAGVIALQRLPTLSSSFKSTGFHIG
# T7: AtSUC5 (Arabidopsis thaliana, UniProt Q9C8X2)
# T7 construct: gene SUC5; full-length CDS, GFP fusion, in Arabidopsis mesophyll protoplasts; Col-0 named for the mutant construct
# T7 sequence (Q9C8X2 1-512): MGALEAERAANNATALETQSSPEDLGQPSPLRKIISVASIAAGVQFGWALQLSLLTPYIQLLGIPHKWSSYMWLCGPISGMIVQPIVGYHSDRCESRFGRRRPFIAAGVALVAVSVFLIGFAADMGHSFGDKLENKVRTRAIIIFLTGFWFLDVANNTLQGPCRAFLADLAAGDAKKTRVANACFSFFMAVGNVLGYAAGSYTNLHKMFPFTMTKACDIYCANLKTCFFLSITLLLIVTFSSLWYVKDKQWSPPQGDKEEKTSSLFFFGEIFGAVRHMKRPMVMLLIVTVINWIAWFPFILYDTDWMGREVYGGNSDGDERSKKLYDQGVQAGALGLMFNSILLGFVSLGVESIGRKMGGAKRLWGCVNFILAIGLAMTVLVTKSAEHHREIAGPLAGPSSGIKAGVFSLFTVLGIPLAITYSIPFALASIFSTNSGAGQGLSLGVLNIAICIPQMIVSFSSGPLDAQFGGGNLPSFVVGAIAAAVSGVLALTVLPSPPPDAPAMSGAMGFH
# Assays:
# AtSUC6Col-0 [1] = target: T1, AtSUC6Col-0; experiment: competition of […]-sucrose uptake in yeast; esculin uptake into protoplasts; assay type: cell-based; details: pH 5.5; competition with 100 μM 14C-sucrose; value in figure only
# AtSUC8 = target: T2, AtSUC8; experiment: esculin fluorescence uptake into GFP-fusion expressing mesophyll protoplasts; assay type: cell-based; details: 1 mM esculin, W5 buffer pH 5.6
# AtSUC1 = target: T3, AtSUC1; experiment: as above; assay type: cell-based; details: 1 mM esculin, W5 buffer pH 5.6
# AtSUC9 = target: T4, AtSUC9; experiment: as above; assay type: cell-based; details: 1 mM esculin, W5 buffer pH 5.6
# AtSUC2 = target: T5, AtSUC2; experiment: as above; assay type: cell-based; details: 1 mM esculin, W5 buffer pH 5.6
# AtSUC3 = target: T6, AtSUC3; experiment: as above; assay type: cell-based; details: 1 mM esculin, W5 buffer pH 5.6
# AtSUC5 = target: T7, AtSUC5; experiment: as above; assay type: cell-based; details: 1 mM esculin, W5 buffer pH 5.6
# AtSUC6Col-0 [2] = target: T1, AtSUC6Col-0; experiment: competition of […]-sucrose uptake in yeast; assay type: cell-based; details: 100 μM 14C-sucrose, maltose in 10-fold excess (1 mM), pH 5.5
# AtSUC6Col-0 [3] = target: T1, AtSUC6Col-0; experiment: competition of […]-sucrose uptake in yeast; assay type: cell-based; details: 10-fold excess, pH 5.5, weak, value in figure only
# [4] = substrate: OC[C@H]1O[C@@](CO)(O[C@H]2O[C@H](CO)[C@@H](O)[C@H](O)[C@H]2O)[C@@H](O)[C@@H]1O; experiment: cells, lysate or membranes; assay type: cell-based, Arabidopsis thaliana; details: external pH 5.5, H+ symport, labelled compound
molecule,measurement,setting,value
O=c1ccc2cc(O[C@@H]3O[C@H](CO)[C@@H](O)[C@H](O)[C@H]3O)c(O)cc2o1 [esculin],competition of 14C-sucrose uptake in yeast; esculin uptake into protoplasts,AtSUC6Col-0 [1],addition of esculin greatly interfered with sucrose uptake (Figure 4E)
same,esculin fluorescence uptake into GFP-fusion expressing mesophyll protoplasts,AtSUC8,"AtSUC1, AtSUC5, AtSUC6Col-0, AtSUC8, or AtSUC9 enabled the cells to accumulate esculin"
same,esculin fluorescence uptake into GFP-fusion expressing mesophyll protoplasts,AtSUC1,"AtSUC1, AtSUC5, AtSUC6Col-0, AtSUC8, or AtSUC9 enabled the cells to accumulate esculin"
same,esculin fluorescence uptake into GFP-fusion expressing mesophyll protoplasts,AtSUC9,"AtSUC1, AtSUC5, AtSUC6Col-0, AtSUC8, or AtSUC9 enabled the cells to accumulate esculin"
same,esculin fluorescence uptake into GFP-fusion expressing mesophyll protoplasts,AtSUC2,all protoplasts labeled by AtSUC2-GFP had taken up esculin
same,esculin fluorescence uptake into GFP-fusion expressing mesophyll protoplasts,AtSUC3,Protoplasts with GFP-AtSUC3 were also able to accumulate esculin
same,esculin fluorescence uptake into GFP-fusion expressing mesophyll protoplasts,AtSUC5,"AtSUC1, AtSUC5, AtSUC6Col-0, AtSUC8, or AtSUC9 enabled the cells to accumulate esculin"
OC[C@H]1O[C@H](O[C@H]2[C@H](O)[C@@H](O)C(O)O[C@@H]2CO)[C@H](O)[C@@H](O)[C@@H]1O (stereo partly shown) [maltose],% residual 14C-sucrose uptake in 10-fold excess,AtSUC6Col-0 [2],32%
OC[C@H]1O[C@H](OC[C@H]2O[C@H](O[C@]3(CO)O[C@H](CO)[C@@H](O)[C@@H]3O)[C@H](O)[C@@H](O)[C@@H]2O)[C@H](O)[C@@H](O)[C@H]1O [raffinose],competition of 14C-sucrose uptake in yeast,AtSUC6Col-0 [3],The trisaccharide raffinose slightly interfered with sucrose uptake
"AtSUC6Col-0 (Arabidopsis thaliana) (protein, full-length CDS from silique cDNA; untagged in yeast CSY4000 (strain TRY1039); GFP fusion in protoplasts) MSDLQANKDAAAVNRQSSSSSADLNGPSPMRKMISVASIAAGIQFGWALQLSLLTPYVQLLGVPHKWSSFIWLCGPVSGLLVQPSVGYFSDRCKSRFGRRRPFIAMGALLVAVAVVLIGYAADFGHSMGDKVDEPVKMRAVVIFALGFWILDVANNTLQGPCRAFLGDLAAGDAKKTRTANAFFSFFMAVGNVLGYAAGSYTNLYKIFPFTMTKACDIYCANLKSCFFLSITLLLVVTIIALWYVEDKQWSPKADSDNEKTPFFGEIFGAFKVMKRPMWMLLIVTALNWIAWFPFLLYDTDWMGREVYGGDSKGDDKMKKLYNQGIHVGGLGLMLNSIVLGFMSLGIEGISRKMGGAKRLWGAVNIILAVCLAMTVLVTKKAEEHRRIAGPMALPTDGIRAGALTLFALLGIPLAITFSIPFALASIISSSSGAGQGLSLGVLNMTIVIPQMVVSFGVGPIDALFGGGNLPGFVVGAIAAAISSVVAFSVLP",Km,[4],81.2 ± 2.7 µM
